Assay results taken from PubChem BioAssay (NCI).
Several values for one entry are separate records, joined by “and”; a condition that tells them apart may be missing. Identical values can stand only once.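 In this assay, cells in 96-well plates receive the compound at five concentrations for 48 hours. Endpoints are linearly interpolated between the surrounding concentrations. Abbreviation: GI50, concentration required for 50% inhibition of growth. TGI is the concentration that stops growth completely.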

Experiments:
Experiment in all cases: growth of human tumour cells (NCI), 48 h
[1] = test system: TK-10 renal
[2] = test system: SK-OV-3 ovarian
[3] = test system: UO-31 renal
[4] = test system: 786-0 renal
[5] = test system: M14 melanoma
[6] = test system: U251 CNS
[7] = test system: OVCAR-8 ovarian
[8] = test system: HL-60(TB) leukemia
[9] = test system: PC-3 prostate
[10] = test system: NCI/ADR-RES ovarian

Row | SMILES | TGI [1] | TGI [2] | TGI [3] | TGI [4] | TGI [5] | TGI [6] | TGI [7] | TGI [8] | GI50 [9] | GI50 [1] | GI50 [2] | GI50 [3] | GI50 [4] | GI50 [6] | GI50 [7] | GI50 [10] | TGI [10]
1 | Cc1ccc(-n2nc(C(OC3OC(CO)C(O)C(O)C3O)C(O)CO)c3nc4cc(C)c(C)cc4nc32)cc1 (centres undefined) | > 100 µM | > 100 µM | > 100 µM | > 100 µM | > 100 µM | > 100 µM | > 100 µM |  |  |  |  |  |  |  |  |  | 
2 | O=C([O-])c1ccc([I+]c2ccccc2)cc1 | > 100 µM | > 100 µM | > 100 µM | > 100 µM | > 100 µM | > 100 µM | > 100 µM | > 100 µM |  |  |  |  |  |  |  |  | 
3 | CCC(Oc1ccc(OC)c2c1C(=O)CCC2)C(=O)O (centres undefined) | > 100 µM | > 100 µM | > 100 µM | > 100 µM | > 100 µM | > 100 µM | > 100 µM | > 100 µM |  |  |  |  |  |  |  |  | 
4 | Cc1nc2ccncc2[nH]1 | > 100 µM |  | > 100 µM | > 100 µM | > 100 µM | > 100 µM | > 100 µM | > 100 µM |  |  |  |  |  |  |  |  | 
5 | O=C1OC(=O)c2c1nc1ccccc1c2-c1ccccc1 | > 100 µM | > 100 µM | > 100 µM | > 100 µM | > 100 µM | > 100 µM | > 100 µM | > 100 µM |  |  |  |  |  |  |  |  | 
6 | COc1ccc([C@@]23Oc4cc(OC)cc(OC)c4[C@]2(O)[C@H](O)[C@H](C(=O)N(C)C)[C@H]3c2ccccc2)cc1 | 0.0531 µM and 0.15 µM and 0.435 µM |  |  | 0.159 µM and 0.0333 µM and 0.215 µM | 0.014 µM |  | 0.244 µM and 0.236 µM and 0.488 µM |  | 17.3 nM | 48.4 nM | 15.7 nM | 21.4 nM | 28.7 nM | 15.7 nM | 20.8 nM | 7.7 nM and 56.6 nM | 442 nM and 329 nM and 1550 nM
7 | COS(=O)c1cc(Cl)cc(Cl)c1OC(=O)CSSCC(=O)Oc1c(Cl)cc(Cl)cc1S(=O)OC (centres undefined) | 84 µM | 80.7 µM | 60 µM | 54.5 µM | 46.3 µM | 20.6 µM | 61.9 µM | 52.9 µM |  |  |  |  |  |  |  |  | 
8 | O=C1C=CC2(CCC23C=CC(=O)O3)O1 (centres undefined) | > 100 µM | > 100 µM | > 100 µM | > 100 µM | > 100 µM | > 100 µM | > 100 µM | > 100 µM |  |  |  |  |  |  |  |  | 
9 | C=C1C(=O)O[C@@H]2C[C@@]3(C)[C@H](O)CCC(=C)[C@@H]3C[C@H]12 | 25 µM | 52.6 µM | 23.2 µM | 21.6 µM |  | 26.2 µM | 23.3 µM |  |  |  |  |  |  |  |  |  | 
10 | N#CC(C(=O)Nc1ccccc1)C1=C(Cl)C(=O)c2ccccc2C1=O (centres undefined) | 36.7 µM | > 100 µM | 26.9 µM | 27.7 µM | 30.3 µM | 61.5 µM | 46.1 µM | 20.5 µM |  |  |  |  |  |  |  |  | 
11 | CCCCCCCCCCCCCCCC(=O)OCC1OC(n2cc(F)c(=O)[nH]c2=O)C(NC(=O)OCc2ccccc2)C(O)C1O (centres undefined) | 43 µM | 66 µM | 35.2 µM | 36.2 µM | 33.1 µM | 31.4 µM | 37.2 µM | 43.1 µM |  |  |  |  |  |  |  |  | 
12 | OC1=CN=C(c2ccccc2)Oc2ccccc21 | > 100 µM | > 100 µM | > 100 µM | > 100 µM | > 100 µM | > 100 µM | > 100 µM | > 100 µM |  |  |  |  |  |  |  |  | 
13 | C#Cc1cccc(NC(=O)/C=C\C(=O)O)c1 | > 100 µM | > 100 µM | > 100 µM | > 100 µM |  | > 100 µM | > 100 µM | > 100 µM |  |  |  |  |  |  |  |  | 
